The values below come from article PMC6678097, “Machilin A Inhibits Tumor Growth and Macrophage M2 Polarization Through the Reduction of Lactic Acid” (Cancers, 2019).

The target in test [1] is T1, purified recombinant human LDHA (rhLDHA) (Homo sapiens, UniProt P00338).
T1 construct: made in house
Briefly: NADH binding assay (LDHA binding to Cibacron Blue 3GA agarose). To be noted: machilin A 10 and 100 μM; NADH positive control. As to the method: An NADH binding assay was performed as described previously. The NADH binding ability of LDHA was determined by measuring the affinity of LDHA to agarose-immobilized Cibacron Blue 3GA, which resembles NADH. Then, 400 ng of purified recombinant human LDHA (rhLDHA) was incubated with NADH or MA, followed by incubation with 30 µL of Cibacron Blue agarose at 4 °C for 2 h. After a washing step with 20 mM Tris-HCl (pH 8.6), LDHA bound to beads was eluted in PBS using a sodium dodecyl sulfate (SDS) gel running buffer and was then subjected to–SDS-polyacrylamide gel electrophoresis (SDS-PAGE) and western blotting. Standardized amounts of protein were used in each reaction.

Test [2] has as its target LDHA (Homo sapiens, UniProt P00338). Put plainly: Isothermal titration calorimetry (ITC) of LDHA and NADH. Also on record: Full-length LDHA (residues 1–331) was obtained from cDNA by polymerase chain reaction (PCR); inferred from pET-28a vector and Ni-NTA purification; made in house; host or cells: E. coli BL21 (DE3). Particulars: 25 °C, read-out: apparent KD of binding to LDHA. As to the method: compounds. The acquisition time was 1.704 sec, relaxation delay was 1.5 sec and 128 transient were collected. Lactate was quantified using Chenomx NMR Suite 7.1 professional with the Chenomx 600 MHz library database (Chenomx Inc., Edmonton, Alberta, Canada, ).
1.4. Isothermal Titration Calorimetry
Isothermal titration calorimetry (ITC) measurements were carried out using MicroCal auto_iTC200 (GE healthcare, Chicago, IL, USA) at 25 °C. The purified LDHA protein was dialyzed in buffer containing 50 mM Tris-HCl (pH 8.0) and 200 mM NaCl at a concentration of 0.1 mM. NADH was solubilized in the same buffer at concentrations of 1 to 2 mM. The NADH was titrated into the LDHA solution onto an ITC200 microcalorimeter cell. The raw data were integrated and normalized using MicroCal Origin 7.0 software (GE healthcare). The determined binding affinity (KA) and enthalpy changes (ΔH) values were used to calculate ΔS from the standard thermodynamic equation.
For generation of bone marrow-derived macrophage (BMDM), bone marrow cells were extracted from C57BL/6 mice by surgery, and treated with M-CSF (10ng/ml) for 7days. BMDM cells were incubated with the indicated concentration of culture media with MA and lactate or not. The cells were washed with phosphate buffered saline (PBS) and fixed in 3.7% formaldehyde in PBS for 1h. […]
Background: Isothermal titration calorimetry measures the heat released or taken up as one component is titrated into another.

For test [3], the target named is T2, purified recombinant LDHA (Homo sapiens, UniProt P00338).
T2 construct: made in house
Put plainly: In vitro LDH activity assay with purified recombinant LDHA. Format: biochemical. To be noted: up to a concentration of 1 mM. On the procedure: A purification of recombinant LDHA was performed as described previously. LDH activity was determined by measuring the decrease of absorbance at 340 nm due to the oxidation of NADH in 20 mM HEPES-K^+, 0.05% bovine serum albumin (BSA), 20 μM NADH, and 2 mM pyruvate (Sigma-Aldrich, St. Louis, MO, USA) at a pH of 7.2 using a spectrofluorometer (Spectramax M2, Molecular Devices, San Jose, CA, USA; excitation 340 nm; emission 460 nm), as described previously. Ten nanograms of recombinant LDHA protein were used in the in vitro LDH activity assay. One microgram of total protein from cell or tissue lysates was used for intracellular or in vivo LDH assays.

Test [4] deals with LDHA. Also on record: method as in PMID 30850682. Particulars: through reducing its binding to substrate, pyruvate; cited from earlier work.

Take `NC(=O)C1=CN(C2OC(COP(=O)(O)OP(=O)(O)OCC3OC(n4cnc5c(N)ncnc54)C(O)C3O)C(O)C2O)C=CC1` (centres unmarked) [NADH, 1,4-dihydronicotinamide adenine dinucleotide, reference compound]: the “LDHA binding to Cibacron Blue Agarose beads (NADH mimic)” value in test [1] is “prohibited LDHA binding”. At LDHA [2], the Kd was found to be 10 µM.

With `OCc1ccc2c(c1)OCO2` [piperonyl alcohol, reference compound], the “effect on LDHA activity” value in test [3] is “did not affect LDHA activity”. `FC(F)(F)c1ccc([Se]c2ccccc2)cc1` [PSTMB, 1-(phenylseleno)-4-(trifluoromethyl)benzene]: the “effect on LDHA activity” value with LDHA [4] was “inhibited LDHA activity”.

Regarding `c1ccc2c(c1)OCO2` [1,3-benzodioxole, reference compound], in test [3], the “effect on LDHA activity” value is listed as “did not affect LDHA activity”.
